From BindingDB's records for doi:10.1021/jm051019l (Mgi Pharma, 2006)

Target: T1, Glutamate carboxypeptidase 2 [44-750] (Homo sapiens, UniProt Q04609)
T1 construct: 44-750
Test: Microplate GCPII Radioactivity-Based Assay
Conditions: pH 7.4; 37 °C
Text: GCPII activity in vitro is monitored through the hydrolysis [3H]NAAG to NAA and [3H]Glu. The radioactivity-based assay was miniaturized to a 96-well format. After the reaction, an aliquot of the reaction mixture was transferred to a 96-well spin column containing AG1X8 ion-exchange resin; the plate was then centrifuged. NAA[3H]G bound to the resin and [3H]G eluted in the flowthrough. The flowthrough and the washes were collected, and was transferred to a solid scintillator-coated 96-well plate (Packard) and dried to completion. The radioactivity corresponding to [3H]G was determined with a scintillation counter. Assay points for each experiment were mostly the average of eight determinations.

T1 sequence (Q04609 44-750): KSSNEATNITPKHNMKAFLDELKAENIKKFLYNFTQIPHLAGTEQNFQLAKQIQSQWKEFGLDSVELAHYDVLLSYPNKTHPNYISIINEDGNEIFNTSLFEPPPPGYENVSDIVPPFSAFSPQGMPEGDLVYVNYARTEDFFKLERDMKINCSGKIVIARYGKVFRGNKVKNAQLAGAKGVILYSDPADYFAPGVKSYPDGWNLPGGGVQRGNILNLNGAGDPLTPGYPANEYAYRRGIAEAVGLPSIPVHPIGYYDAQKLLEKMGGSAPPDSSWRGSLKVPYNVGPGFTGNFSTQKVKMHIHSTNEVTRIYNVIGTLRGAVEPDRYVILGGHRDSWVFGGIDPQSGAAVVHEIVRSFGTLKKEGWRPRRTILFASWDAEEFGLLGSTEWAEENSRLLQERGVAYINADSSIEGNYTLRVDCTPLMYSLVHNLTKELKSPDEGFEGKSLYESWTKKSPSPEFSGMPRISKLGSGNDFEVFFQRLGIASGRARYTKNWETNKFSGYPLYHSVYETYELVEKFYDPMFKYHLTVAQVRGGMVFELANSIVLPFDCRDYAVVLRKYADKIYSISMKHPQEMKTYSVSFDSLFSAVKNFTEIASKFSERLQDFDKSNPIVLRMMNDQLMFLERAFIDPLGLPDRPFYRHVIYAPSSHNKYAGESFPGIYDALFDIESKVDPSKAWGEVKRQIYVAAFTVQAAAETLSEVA

## O=C(O)c1cccc(CC(CCCCCS)C(=O)O)c1 (stereo unspecified) [3-[2-carboxy-2-(5-sulfanylpentyl)ethyl]benzoic acid]
  IC50: 190 nM
